This passage reports IC50 results from US9018383B2, “Acylamino-substituted cyclic carboxylic acid derivatives and their use as pharmaceuticals” (Sanofi, priority 2009, dated 2015).

human Edg-2 receptor, sequence (Q92633 whole entry): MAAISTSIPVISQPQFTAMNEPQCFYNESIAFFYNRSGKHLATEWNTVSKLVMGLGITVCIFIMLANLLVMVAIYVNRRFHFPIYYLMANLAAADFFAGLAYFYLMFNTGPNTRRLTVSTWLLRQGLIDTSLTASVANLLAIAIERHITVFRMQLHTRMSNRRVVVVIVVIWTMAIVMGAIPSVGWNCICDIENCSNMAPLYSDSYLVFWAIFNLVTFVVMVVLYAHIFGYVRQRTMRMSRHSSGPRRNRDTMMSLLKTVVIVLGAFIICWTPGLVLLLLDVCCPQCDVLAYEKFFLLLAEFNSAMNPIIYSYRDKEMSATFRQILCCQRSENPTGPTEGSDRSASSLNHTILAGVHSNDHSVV

This experiment addresses human Edg-2 receptor (Homo sapiens, UniProt Q92633). The experiment in a line: Determination of Edg-2 receptor inhibition by FLIPR measurements (LPA-mediated calcium liberation). The settings on record: CHO cells overexpressing human Edg-2 receptor, LPA 100 nM, fluo-4 calcium fluorescence; read-out: Inhibitory concentrations IC50 for inhibition of the Edg-2 receptor. It is filed as cell-based. A digest of the protocol: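 CHO cells stably overexpressing human Edg-2, loaded with fluo-4 AM, were pre-incubated ~5 min with compound (≤0.3% DMSO), then stimulated with 100 nM LPA 18:1 in HBSS/HEPES/probenecid, pH 7.5. Peak calcium fluorescence over ~3 min, baseline-corrected, versus DMSO gave % inhibition; IC50 from triplicates.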
Take `Cc1cccc(CCOc2cc(C(=O)N[C@]3(C(=O)O)CC[C@H](C(F)(F)F)CC3)ccc2C2COC2)c1` [Example 131, cis-1-[4-Oxetan-3-yl-3-(2-m-tolyl-ethoxy)-benzoylamino]-4-trifluoromethyl-cyclohexanecarboxylic acid]: the IC50 is < 100 nM.
Next, `Cc1cccc(CCOc2cc(C(=O)NC3(C(=O)O)CCCCCC3)cc3c2OCO3)c1` [Example 132, 1-{[7-(2-m-Tolyl-ethoxy)-benzo[1,3]dioxole-5-carbonyl]-amino}-cycloheptanecarboxylic acid]: < 100 nM.
The figure for `Cc1cccc(CCOc2cc(C(=O)N[C@]3(C(=O)O)CC[C@H](C(F)(F)F)CC3)cc3c2OCO3)c1` [Example 133, cis-1-{[7-(2-m-Tolyl-ethoxy)-benzo[1,3]dioxole-5-carbonyl]-amino}-4-trifluoromethyl-cyclohexanecarboxylic acid] is < 100 nM.
Regarding `CC[C@H]1CC[C@](NC(=O)c2cc(OCCc3cccc(C)c3)c3c(c2)OCO3)(C(=O)O)CC1` [Example 134, cis-4-Ethyl-1-{[7-(2-m-tolyl-ethoxy)-benzo[1,3]dioxole-5-carbonyl]-amino}-cyclohexanecarboxylic acid], the IC50 was < 100 nM.
In the case of `CC[C@H]1CC[C@@](NC(=O)c2ccc(OC)c(OCCc3ccccc3)c2)(C(=O)O)CC1` [Example 205], the IC50 was < 100 nM.
Turning to `CC[C@H]1CC[C@](NC(=O)c2ccc(OC)c(OCCc3ccccc3)c2)(C(=O)O)CC1` [Example 206], the IC50 was < 100 nM.
For `CC[C@H]1CC[C@@](NC(=O)c2ccc(OC)c(OCCc3cccc(Cl)c3)c2)(C(=O)O)CC1` [Example 207], the IC50 is < 100 nM.
Take `CC[C@H]1CC[C@](NC(=O)c2ccc(OC)c(OCCc3cccc(Cl)c3)c2)(C(=O)O)CC1` [Example 208]: the IC50 is < 100 nM.
With `CC[C@H]1CC[C@](NC(=O)c2cnc(OC)c(-c3cccc(OC(F)(F)F)c3)c2)(C(=O)O)CC1` [Example 299, cis-4-ethyl-1-{[6-methoxy-5-(3-trifluoromethoxy-phenyl)-pyridine-3-carbonyl]-amino}-cyclohexanecarboxylic acid], the IC50 was < 100 nM.
As for `CC[C@H]1CC[C@](NC(=O)c2cnc(OC)c(-c3cccc(Cl)c3Cl)c2)(C(=O)O)CC1` [Example 300], the IC50 was < 100 nM.
The figure for `CC[C@H]1CC[C@](NC(=O)c2cnc(OC)c(-c3cc(F)c(F)c(F)c3)c2)(C(=O)O)CC1` [Example 301] is < 100 nM; for `CC[C@H]1CC[C@](NC(=O)c2cnc(OC)c(-c3cc(Cl)cc(C(F)(F)F)c3)c2)(C(=O)O)CC1` [Example 302] it is < 100 nM.
Next, `CC[C@H]1CC[C@](NC(=O)c2cnc(OC)c(-c3cccc(C(F)(F)F)c3)c2)(C(=O)O)CC1` [Example 303]: < 100 nM; `CC[C@H]1CC[C@](NC(=O)c2cnc(OC)c(-c3cccc(C(F)(F)F)c3F)c2)(C(=O)O)CC1` [Example 304]: < 100 nM.
Regarding `CC[C@H]1CC[C@@](NC(=O)c2cnc(OC)c(-c3cccc(OC(F)(F)F)c3)c2)(C(=O)O)CC1` [Example 306], the IC50 is < 100 nM.
As for `COc1ncc(C(=O)N[C@]2(C(=O)O)CC[C@H](C)CC2)cc1-c1cccc(OC(F)(F)F)c1` [Example 307], the IC50 was < 100 nM.
For the compound `COc1ncc(C(=O)N[C@]2(C(=O)O)CC[C@@H](C)CC2)cc1-c1cccc(OC(F)(F)F)c1` [Example 308], the IC50 was < 100 nM.
For `CC[C@H]1CC[C@@](NC(=O)c2cnc(OC)c(-c3cccc(Cl)c3Cl)c2)(C(=O)O)CC1` [Example 309], the IC50 was < 100 nM.
In the case of `COc1ncc(C(=O)N[C@]2(C(=O)O)CC[C@H](C)CC2)cc1-c1cccc(Cl)c1Cl` [Example 310], the IC50 was < 100 nM.
Take `COc1ncc(C(=O)N[C@]2(C(=O)O)CC[C@@H](C)CC2)cc1-c1cccc(Cl)c1Cl` [Example 311]: the IC50 was < 100 nM.
With `CC[C@H]1CC[C@@](NC(=O)c2cnc(OC)c(-c3cc(F)c(F)c(F)c3)c2)(C(=O)O)CC1` [Example 312], the IC50 lay in the range of 100 to 1000 nM.
As to `COc1ncc(C(=O)N[C@]2(C(=O)O)CC[C@H](C)CC2)cc1-c1cc(F)c(F)c(F)c1` [Example 313], the IC50 was < 100 nM.
As to `COc1ncc(C(=O)N[C@]2(C(=O)O)CC[C@@H](C)CC2)cc1-c1cc(F)c(F)c(F)c1` [Example 314], the IC50 was < 100 nM.
For `COc1ncc(C(=O)N[C@]2(C(=O)O)CC[C@@H](C)CC2)cc1-c1cc(Cl)cc(C(F)(F)F)c1` [Example 315], the IC50 is < 100 nM.
Consider `CC[C@H]1CC[C@@](NC(=O)c2cnc(OC)c(-c3cccc(C(F)(F)F)c3)c2)(C(=O)O)CC1` [Example 316], for which the IC50 was < 100 nM.
For the compound `COc1ncc(C(=O)N[C@]2(C(=O)O)CC[C@H](C)CC2)cc1-c1cccc(C(F)(F)F)c1` [Example 317], the IC50 was < 100 nM.
The figure for `COc1ncc(C(=O)N[C@]2(C(=O)O)CC[C@@H](C)CC2)cc1-c1cccc(C(F)(F)F)c1` [Example 318] is < 100 nM; for `COc1ccc(-c2cc(C(=O)N[C@]3(C(=O)O)CC[C@H](C)CC3)cnc2OC)cc1Cl` [Example 319] it is < 100 nM; for `COc1ccc(-c2cc(C(=O)N[C@]3(C(=O)O)CC[C@@H](C)CC3)cnc2OC)cc1Cl` [Example 320] it is < 100 nM.
Consider `CC[C@H]1CC[C@](NC(=O)c2ccc(OC)c(-c3cccc(OC(F)(F)F)c3)c2)(C(=O)O)CC1` [Example 327], for which the IC50 was < 100 nM.
As to `CC[C@H]1CC[C@@](NC(=O)c2ccc(OC)c(-c3cccc(OC(F)(F)F)c3)c2)(C(=O)O)CC1` [Example 328], the IC50 lay within 100 to 1000 nM.
Regarding `COc1ccc(C(=O)N[C@]2(C(=O)O)CC[C@H](C)CC2)cc1-c1cccc(OC(F)(F)F)c1` [Example 329], the IC50 was < 100 nM.
The figure for `COc1ccc(C(=O)N[C@]2(C(=O)O)CC[C@@H](C)CC2)cc1-c1cccc(OC(F)(F)F)c1` [Example 330] is 1000 to 30000 nM; for `CC[C@H]1CC[C@](NC(=O)c2ccc(OC)c(-c3cccc(C(F)(F)F)c3)c2)(C(=O)O)CC1` [Example 331] it is < 100 nM; for `CC[C@H]1CC[C@@](NC(=O)c2ccc(OC)c(-c3cccc(C(F)(F)F)c3)c2)(C(=O)O)CC1` [Example 332] it is < 100 nM.
On to `COc1ccc(C(=O)N[C@]2(C(=O)O)CC[C@H](C)CC2)cc1-c1cccc(C(F)(F)F)c1` [Example 333], for which the IC50 is < 100 nM.
As to `COc1ccc(C(=O)N[C@]2(C(=O)O)CC[C@@H](C)CC2)cc1-c1cccc(C(F)(F)F)c1` [Example 334], the IC50 was in the range of 100 to 1000 nM.
With `CC[C@H]1CC[C@](NC(=O)c2ccc(OC)c(-c3ccc(OC)c(Cl)c3)c2)(C(=O)O)CC1` [Example 351], the IC50 was < 100 nM.
With `CC[C@H]1CC[C@@](NC(=O)c2ccc(OC)c(-c3ccc(OC)c(Cl)c3)c2)(C(=O)O)CC1` [Example 352], the IC50 is < 100 nM.
For the compound `CC[C@H]1CC[C@@](NC(=O)c2cnc(OC)c(OCCc3ccccc3)c2)(C(=O)O)CC1` [Example 355, trans-4-Ethyl-1-[(6-methoxy-5-phenethyloxy-pyridine-3-carbonyl)-amino]-cyclohexanecarboxylic acid], the IC50 is < 100 nM.
Next, `COc1ncc(C(=O)N[C@]2(C(=O)O)CC[C@H](C)CC2)cc1OCCc1cccc(Cl)c1` [Example 356, cis-1-({5-[2-(3-Chloro-phenyl)-ethoxy]-6-methoxy-pyridine-3-carbonyl}-amino)-4-methyl-cyclohexanecarboxylic acid]: < 100 nM; `CC[C@H]1CC[C@](NC(=O)c2cnc(OC)c(OCCc3cccc(Cl)c3)c2)(C(=O)O)CC1` [Example 357, cis-1-({5-[2-(3-Chloro-phenyl)-ethoxy]-6-methoxy-pyridine-3-carbonyl}-amino)-4-ethyl-cyclohexanecarboxylic acid]: < 100 nM.
As to `CC[C@H]1CC[C@](NC(=O)c2cnc(OC)c(OCCc3ccccc3)c2)(C(=O)O)CC1` [Example 358, cis-4-Ethyl-1-[(6-methoxy-5-phenethyloxy-pyridine-3-carbonyl)-amino]-cyclohexanecarboxylic acid], the IC50 is < 100 nM.
Turning to `CC[C@H]1CC[C@](NC(=O)c2cnc(OC)c(-c3ccc(F)c(F)c3)c2)(C(=O)O)CC1` [Example 359, cis-1-{[5-(3,4-Difluoro-phenyl)-6-methoxy-pyridine-3-carbonyl]-amino}-4-ethyl-cyclohexanecarboxylic acid], the IC50 is < 100 nM.
For the compound `CC[C@H]1CC[C@](NC(=O)c2cnc(OC)c(-c3cc(F)cc(F)c3)c2)(C(=O)O)CC1` [Example 360, cis-1-{[5-(3,5-Difluoro-phenyl)-6-methoxy-pyridine-3-carbonyl]-amino}-4-ethyl-cyclohexanecarboxylic acid], the IC50 was < 100 nM.
On to `CC[C@@H]1C[C@]1(NC(=O)c1cnc(OC)c(OCCc2cccc(Cl)c2)c1)C(=O)O` [Example 361, (1R,2R)-1-({5-[2-(3-Chloro-phenyl)-ethoxy]-6-methoxy-pyridine-3-carbonyl}-amino)-2-ethyl-cyclopropanecarboxylic acid], for which the IC50 was < 100 nM.
The figure for `CC[C@H]1CC[C@@](NC(=O)c2cc(F)c(OCCO)c(-c3cccc(C(F)(F)F)c3)c2)(C(=O)O)CC1` [Example 362, trans-4-Ethyl-1-{[5-fluoro-6-(2-hydroxy-ethoxy)-3′-trifluoromethyl-biphenyl-3-carbonyl]-amino}-cyclohexanecarboxylic acid] is < 100 nM; for `COc1ccc(C(=O)NC2(C(=O)O)CCCCCC2)cc1OCCc1cccc(C(F)(F)F)c1` [Example 363] it is 100 to 1000 nM; for `COc1ccc(C(=O)NC2(C(=O)O)CCCCCC2)cc1OCCc1ccccc1Cl` [Example 364] it is < 100 nM.
Turning to `COc1ccc(C(=O)NC2(C(=O)O)CCCCCC2)cc1OCCc1cccc(F)c1` [Example 365], the IC50 is 100 to 1000 nM.
